The text below walks through data of the supplement of paper PMC10307832.

Assay in all cases: relative viability (nuclei count vs DMSO), 5 days (fraction); higher = more cells survive
Compound in the test “Adavosertib + Phenformin”: C=CCn1c(=O)c2cnc(Nc3ccc(N4CCN(C)CC4)cc3)nc2n1-c1cccc(C(C)(C)O)n1 [Adavosertib] + N=C(N)NC(=N)NCCc1ccccc1 [Phenformin] (partner 250 µM)
An outline of the steps: (§1)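 For relative viability, nuclei counts in treated wells were divided by those in vehicle wells. Lung cancer cell lines had been pin-tool dosed in 1536-well plates the day after seeding and cultured for 5 days, then fixed and stained in one step (final 0.05% Triton X-100, 1% formaldehyde, 1 ug/ml Hoechst) and imaged at 4×. Doses were one drug alone or a fixed anchor-drug dose plus five library-drug doses (not always all listed) in √10 steps, and values are duplicate-plate medians.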

Compound in the test “Nelarabine + Bortezomib”: COc1nc(N)nc2c1ncn2[C@@H]1O[C@H](CO)[C@@H](O)[C@@H]1O [Nelarabine] + CC(C)C[C@H](NC(=O)[C@H](Cc1ccccc1)NC(=O)c1cnccn1)B(O)O [Bortezomib] (partner 0.002 µM)
A digest of the protocol:
as §1

Compound in the test “Adavosertib + Trametinib”: C=CCn1c(=O)c2cnc(Nc3ccc(N4CCN(C)CC4)cc3)nc2n1-c1cccc(C(C)(C)O)n1 [Adavosertib] + CC(=O)Nc1cccc(-n2c(=O)n(C3CC3)c(=O)c3c(Nc4ccc(I)cc4F)n(C)c(=O)c(C)c32)c1 [Trametinib] (partner 0.02 µM)
A digest of the protocol: as §1

Compound in the test “Nelarabine + Vorinostat”: COc1nc(N)nc2c1ncn2[C@@H]1O[C@H](CO)[C@@H](O)[C@@H]1O [Nelarabine] + O=C(CCCCCCC(=O)Nc1ccccc1)NO [Vorinostat] (partner 1 µM)
A digest of the protocol: as §1

NCI-H2347: the relative viability with Adavosertib + Phenformin (first compound 0.01 µM) came out at 0.306; with Adavosertib + Phenformin (first compound 0.03162 µM) it was 0.496; with Adavosertib + Phenformin (first compound 0.1 µM), 0.5; with Adavosertib + Phenformin (first compound 0.3162 µM), 0.411; with Nelarabine + Bortezomib (first compound 0.01 µM), 1.27; in the test with Nelarabine + Bortezomib (first compound 0.1 µM), 0.862. The relative viability was determined as 0.985 with Nelarabine + Bortezomib (first compound 0.3162 µM); 1.3 in the test with Nelarabine + Bortezomib (first compound 1 µM); 0.287 with Adavosertib + Trametinib (first compound 0.01 µM); 0.327 with Adavosertib + Trametinib (first compound 0.03162 µM); 0.323 with Adavosertib + Trametinib (first compound 0.1 µM); 0.285 with Adavosertib + Trametinib (first compound 0.3162 µM). Moreover, the relative viability with Nelarabine + Vorinostat (first compound 0.01 µM) was found to be 0.584; with Nelarabine + Vorinostat (first compound 0.03162 µM), 0.69; in the test with Nelarabine + Vorinostat (first compound 0.1 µM) it was 0.569; in the test with Nelarabine + Vorinostat (first compound 0.3162 µM), 0.61; in the test with Nelarabine + Vorinostat (first compound 1 µM), 0.455.

For NCI-H3122, the relative viability was 0.365 in the test with Adavosertib + Phenformin (first compound 0.01 µM); 0.402 with Adavosertib + Phenformin (first compound 0.03162 µM); 0.355 in the test with Adavosertib + Phenformin (first compound 0.1 µM); 0.365 in the test with Adavosertib + Phenformin (first compound 0.3162 µM); 1.03 in the test with Nelarabine + Bortezomib (first compound 0.01 µM); 0.872 with Nelarabine + Bortezomib (first compound 0.03162 µM). Moreover, the relative viability was found to be 1.03 with Nelarabine + Bortezomib (first compound 0.3162 µM); 1.02 with Nelarabine + Bortezomib (first compound 1 µM); 0.201 with Adavosertib + Trametinib (first compound 0.01 µM); 0.198 with Adavosertib + Trametinib (first compound 0.03162 µM); 0.272 with Adavosertib + Trametinib (first compound 0.1 µM); 0.227 with Adavosertib + Trametinib (first compound 0.3162 µM). The relative viability worked out at 1.38 in the test with Nelarabine + Vorinostat (first compound 0.01 µM), 0.833 in the test with Nelarabine + Vorinostat (first compound 0.03162 µM), 1.17 with Nelarabine + Vorinostat (first compound 0.3162 µM) and 1.02 in the test with Nelarabine + Vorinostat (first compound 1 µM).

For the cell line HCC-15, the relative viability in the test with Adavosertib + Phenformin (first compound 0.01 µM) was 0.474; with Adavosertib + Phenformin (first compound 0.03162 µM), 0.471; with Adavosertib + Phenformin (first compound 0.1 µM), 0.494; in the test with Adavosertib + Phenformin (first compound 0.3162 µM) it was 0.504; with Nelarabine + Bortezomib (first compound 0.01 µM) it was 1.33; in the test with Nelarabine + Bortezomib (first compound 0.03162 µM), 0.917. For the same cell line, the relative viability with Nelarabine + Bortezomib (first compound 0.1 µM) was 1.18; with Nelarabine + Bortezomib (first compound 0.3162 µM) it was 1.11; with Nelarabine + Bortezomib (first compound 1 µM), 1.14; in the test with Adavosertib + Trametinib (first compound 0.01 µM), 0.399; with Adavosertib + Trametinib (first compound 0.03162 µM), 0.402; with Adavosertib + Trametinib (first compound 0.1 µM), 0.377. Further, the relative viability came to 0.379 in the test with Adavosertib + Trametinib (first compound 0.3162 µM); 1.1 with Nelarabine + Vorinostat (first compound 0.01 µM); 0.905 with Nelarabine + Vorinostat (first compound 0.03162 µM); 0.829 in the test with Nelarabine + Vorinostat (first compound 0.1 µM); 0.887 with Nelarabine + Vorinostat (first compound 0.3162 µM); 0.973 with Nelarabine + Vorinostat (first compound 1 µM).

For the cell line HCC-78, the relative viability in the test with Adavosertib + Phenformin (first compound 0.01 µM) is 0.582; with Adavosertib + Phenformin (first compound 0.03162 µM) it was 0.744; with Adavosertib + Phenformin (first compound 0.1 µM) it was 0.821; with Adavosertib + Phenformin (first compound 0.3162 µM) it was 0.704; with Nelarabine + Bortezomib (first compound 0.01 µM) it was 0.771; in the test with Nelarabine + Bortezomib (first compound 0.03162 µM) it was 0.497. In addition, the relative viability in the test with Nelarabine + Bortezomib (first compound 0.3162 µM) amounted to 0.584; in the test with Nelarabine + Bortezomib (first compound 1 µM) it was 0.539; with Adavosertib + Trametinib (first compound 0.01 µM) it was 0.859; with Adavosertib + Trametinib (first compound 0.03162 µM), 0.737; in the test with Adavosertib + Trametinib (first compound 0.1 µM) it was 0.888; with Adavosertib + Trametinib (first compound 0.3162 µM) it was 0.852. The relative viability with Nelarabine + Vorinostat (first compound 0.01 µM) worked out at 0.601; with Nelarabine + Vorinostat (first compound 0.03162 µM) it was 0.475; in the test with Nelarabine + Vorinostat (first compound 0.3162 µM), 0.427; in the test with Nelarabine + Vorinostat (first compound 1 µM), 0.556.

For A549, the relative viability with Adavosertib + Phenformin (first compound 0.01 µM) worked out at 0.218; with Adavosertib + Phenformin (first compound 0.03162 µM) it was 0.229; with Adavosertib + Phenformin (first compound 0.1 µM), 0.14; with Adavosertib + Phenformin (first compound 0.3162 µM), 0.173.

With PC-3 [JPC-3], the relative viability came to 0.458 with Adavosertib + Phenformin (first compound 0.01 µM); 0.46 in the test with Adavosertib + Phenformin (first compound 0.03162 µM); 0.498 with Adavosertib + Phenformin (first compound 0.1 µM); 0.488 with Adavosertib + Phenformin (first compound 0.3162 µM); 1.08 with Nelarabine + Bortezomib (first compound 0.01 µM); 0.905 with Nelarabine + Bortezomib (first compound 0.03162 µM). Further, the relative viability in the test with Nelarabine + Bortezomib (first compound 0.1 µM) amounted to 0.826; with Nelarabine + Bortezomib (first compound 0.3162 µM), 0.743; with Nelarabine + Bortezomib (first compound 1 µM) it was 0.776; with Adavosertib + Trametinib (first compound 0.03162 µM), 0.667; with Adavosertib + Trametinib (first compound 0.1 µM), 0.761; in the test with Adavosertib + Trametinib (first compound 0.3162 µM), 0.746. Moreover, the relative viability came out at 0.927 with Nelarabine + Vorinostat (first compound 0.01 µM); 0.924 with Nelarabine + Vorinostat (first compound 0.03162 µM); 0.918 with Nelarabine + Vorinostat (first compound 0.1 µM); 0.957 in the test with Nelarabine + Vorinostat (first compound 0.3162 µM); 0.709 with Nelarabine + Vorinostat (first compound 1 µM).

Take NCI-H1395: the relative viability with Adavosertib + Phenformin (first compound 0.01 µM) is 0.435; with Adavosertib + Phenformin (first compound 0.03162 µM), 0.429; with Adavosertib + Phenformin (first compound 0.1 µM), 0.421; in the test with Adavosertib + Phenformin (first compound 0.3162 µM) it was 0.471; in the test with Adavosertib + Trametinib (first compound 0.01 µM), 1.06; with Adavosertib + Trametinib (first compound 0.03162 µM), 1.12. The relative viability with Adavosertib + Trametinib (first compound 0.1 µM) amounted to 1.08; with Adavosertib + Trametinib (first compound 0.3162 µM), 0.864; with Nelarabine + Vorinostat (first compound 0.01 µM), 0.757; with Nelarabine + Vorinostat (first compound 0.03162 µM), 0.706; with Nelarabine + Vorinostat (first compound 0.1 µM), 1.16; with Nelarabine + Vorinostat (first compound 0.3162 µM) it was 0.755. Further, the relative viability in the test with Nelarabine + Vorinostat (first compound 1 µM) was determined as 0.666.

As for SK-MES-1, the relative viability in the test with Adavosertib + Phenformin (first compound 0.01 µM) came to 0.66; with Adavosertib + Phenformin (first compound 0.03162 µM), 0.704; in the test with Adavosertib + Phenformin (first compound 0.1 µM), 0.635; in the test with Adavosertib + Phenformin (first compound 0.3162 µM) it was 0.208; in the test with Adavosertib + Trametinib (first compound 0.01 µM) it was 0.556; with Adavosertib + Trametinib (first compound 0.03162 µM), 0.576. Further, the relative viability with Adavosertib + Trametinib (first compound 0.1 µM) amounted to 0.529; with Adavosertib + Trametinib (first compound 0.3162 µM), 0.486; with Nelarabine + Vorinostat (first compound 0.01 µM), 1.36; in the test with Nelarabine + Vorinostat (first compound 0.03162 µM), 1.12; with Nelarabine + Vorinostat (first compound 0.1 µM), 1.18; with Nelarabine + Vorinostat (first compound 0.3162 µM) it was 1.36. In addition, in the test with Nelarabine + Vorinostat (first compound 1 µM), the relative viability amounted to 1.3.

With CAL-12T, the relative viability was 0.576 with Adavosertib + Phenformin (first compound 0.01 µM); 0.545 with Adavosertib + Phenformin (first compound 0.03162 µM); 0.573 with Adavosertib + Phenformin (first compound 0.1 µM); 0.336 with Adavosertib + Phenformin (first compound 0.3162 µM); 1.11 with Nelarabine + Bortezomib (first compound 0.01 µM); 0.973 in the test with Nelarabine + Bortezomib (first compound 0.03162 µM). The relative viability in the test with Nelarabine + Bortezomib (first compound 0.1 µM) turned out to be 1.31; with Nelarabine + Bortezomib (first compound 0.3162 µM), 0.958; with Nelarabine + Bortezomib (first compound 1 µM), 0.959; in the test with Adavosertib + Trametinib (first compound 0.01 µM), 0.334; with Adavosertib + Trametinib (first compound 0.03162 µM) it was 0.338; with Adavosertib + Trametinib (first compound 0.1 µM), 0.312. The relative viability was found to be 0.29 with Adavosertib + Trametinib (first compound 0.3162 µM); 0.987 with Nelarabine + Vorinostat (first compound 0.01 µM); 0.78 with Nelarabine + Vorinostat (first compound 0.03162 µM); 0.764 in the test with Nelarabine + Vorinostat (first compound 0.1 µM); 0.938 in the test with Nelarabine + Vorinostat (first compound 0.3162 µM); 0.997 with Nelarabine + Vorinostat (first compound 1 µM).
